The values below come from BindingDB's records for doi:10.7270/Q2J101NV (Burnham Center For Chemical Genomics, 2010).

Structures are written as SMILES.

In the assay the target is T1, Alkaline phosphatase, tissue-nonspecific isozyme (Homo sapiens, UniProt P05186).
T1 sequence (P05186 whole entry): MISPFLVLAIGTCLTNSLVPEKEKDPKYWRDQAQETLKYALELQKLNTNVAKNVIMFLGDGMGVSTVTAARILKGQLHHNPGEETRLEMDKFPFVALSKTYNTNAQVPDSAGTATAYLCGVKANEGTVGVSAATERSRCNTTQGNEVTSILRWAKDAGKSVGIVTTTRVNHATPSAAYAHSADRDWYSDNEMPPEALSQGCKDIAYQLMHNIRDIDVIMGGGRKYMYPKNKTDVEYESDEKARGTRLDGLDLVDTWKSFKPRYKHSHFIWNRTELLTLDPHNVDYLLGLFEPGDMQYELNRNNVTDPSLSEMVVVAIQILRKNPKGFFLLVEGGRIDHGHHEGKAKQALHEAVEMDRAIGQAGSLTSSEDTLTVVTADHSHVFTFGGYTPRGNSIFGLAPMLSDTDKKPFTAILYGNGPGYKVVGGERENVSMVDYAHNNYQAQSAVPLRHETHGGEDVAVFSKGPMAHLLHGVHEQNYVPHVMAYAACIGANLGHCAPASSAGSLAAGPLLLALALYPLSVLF
Description: TNAP enzyme activators, dose response, selectivity assay for mouse IAP activator project, biochemical, TNAP isozyme, mouse IAP uHTS hits (AID 488880).
As a reminder, the EC50 is the concentration giving half of the maximal effect. Low readings indicate a more potent agent, high ones a less potent agent. `CN(CCO)c1ccc(CN=Nc2ccc([N+](=O)[O-])cc2S(=O)(=O)Nc2ccccc2C(=O)O)cc1` showed a 50% effective concentration (EC50) of 19.7 µM. On to `O=C(NN=CC1=CC(=O)C(=O)CC1)NN=CC1=CC(=O)C(=O)CC1` [1,3-bis[[(Z)-(3-hydroxy-4-oxocyclohexa-2,5-dien-1-ylidene)methyl]amino]urea], for which the EC50 came out at 79.4 µM. To `O=C1CC(=O)c2c(O)cc(O)c(O)c2C1=O` [4,5,7,8-tetrahydroxy-1,2-naphthoquinone] belongs more than 100 µM. To `C#CCOCCOCCOCCNc1nc(N2CCN(C(=O)CCCCCCCCCCNC(=O)[C@@H](CCC(=O)O)n3cc(CCCCCN)nn3)CC2)nc(N2CCN(C(=O)CCCCCCCCCCNC(=O)[C@H]([C@@H](C)CC)n3cc(CCCCCN)nn3)CC2)n1` [KI-KE] belongs more than 100 µM; to `Cc1cc(=O)[nH]c(N=NCc2ccc(O)c(O)c2)n1` [MLS001194906], 56.1 µM.
